In brackets after ≈: the same amount, converted by molar mass. Each block holds one compound with its values, some of them ahead of it.
Tests used:
Staphylococcus aureus [1] = test: Antibacterial activity against Staphylococcus aureus ATCC 25923 assessed as reduction in microbial growth after 24 hrs by two-fold serial dilution method; assay type: functional
Nakaseomyces glabratus = test: Antifungal activity against Candida glabrata ATCC 15126 assessed as reduction in fungal growth incubated for 24 hrs by CLSI based analysis; assay type: functional
Bacillus subtilis [2] = test: Antibacterial activity against Bacillus subtilis ATCC 6633 assessed as minimum bactericidal concentration incubated for 24 hrs; assay type: functional
Escherichia coli [3] = test: Antibacterial activity against Escherichia coli assessed as minimum bactericidal concentration incubated for 24 hrs; assay type: functional
Escherichia coli [4] = test: Antibacterial activity against Escherichia coli JW 1772 assessed as reduction in microbial growth after 24 hrs by two-fold serial dilution method; assay type: functional
Bacillus subtilis [5] = test: Antibacterial activity against Bacillus subtilis ATCC 6633 assessed as reduction in microbial growth after 24 hrs by two-fold serial dilution method; assay type: functional
Staphylococcus aureus [6] = test: Bactericidal activity against Staphylococcus aureus ATCC 25923 assessed as reduction in bacterial cell growth incubated for 24 hrs by CLSI-based analysis; assay type: functional
Candida albicans [7] = test: Antifungal activity against Candida albicans ATCC 28367 assessed as reduction in fungal growth incubated for 24 hrs by CLSI based analysis; assay type: functional
Salmonella typhimurium = test: Antibacterial activity against Salmonella typhimurium DT104 ATCC 14028 assessed as reduction in microbial growth measured after 24 hrs by CLSI-based method; assay type: functional, Salmonella enterica subsp. enterica serovar Typhimurium; details: Salmonella enterica
[8] = Binding affinity to D-Ala-D-Ala assessed as dissociation constant
Staphylococcus aureus [9] = test: Antibacterial activity against methicillin-resistant Staphylococcus aureus assessed as inhibition of cell growth; assay type: functional
Enterococcus faecium = test: Antibacterial activity against Enterococcus faecium assessed as bacterial growth inhibition; assay type: functional
Klebsiella pneumoniae [10] = test: Antibacterial activity against carbapenem resistance Klebsiella pneumoniae ATCC BAA-1705 assessed as inhibition of microbial growth measured after 24 hrs by microplate reader analysis; assay type: functional
Escherichia coli [11] = test: Antibacterial activity against Escherichia coli ATCC 8730 assessed as reduction in bacterial cell growth measured after 24 hrs by microplate reader based analysis; assay type: functional
Enterococcus faecalis [12] = test: Antibacterial activity against Enterococcus faecalis assessed as bacterial growth inhibition; assay type: functional
Staphylococcus aureus [13] = test: Antibacterial activity against methicillin-resistant Staphylococcus aureus assessed as reduction in bacterial cell growth incubated for 24 hrs by broth microdilution method; assay type: functional
Staphylococcus aureus [14] = test: Antibacterial activity against methicillin-susceptible Staphylococcus aureus assessed as reduction in bacterial cell growth; assay type: functional
Acinetobacter baumannii [15] = test: Antibacterial activity against Acinetobacter baumannii assessed as reduction in bacterial growth by Mueller-Hinton broth microdilution method; assay type: functional, organism-based
Neisseria gonorrhoeae = test: Antibacterial activity against Neisseria gonorrhoeae ATCC 49226 assessed as reduction in bacterial growth; assay type: functional
Carbonic anhydrase 2 [16] = target: T1, Carbonic anhydrase 2 (Homo sapiens, UniProt P00918); test: Binding affinity to human CA2 in U2OS cells assessed as inhibition constant; assay type: cell-based
Carbonic anhydrase 2 [17] = target: T1, Carbonic anhydrase 2; test: Binding affinity to CA2 (unknown origin) assessed as inhibition constant
Acinetobacter baumannii [18] = test: Antibacterial activity against Acinetobacter baumannii assessed as reduction in bacterial growth measured after 24 hrs by Mueller-Hinton broth dilution method; assay type: functional
[19] = Binding affinity to Escherichia coli ThiM TPP riboswitch assessed as dissociation constant
Klebsiella pneumoniae [20] = test: Antibacterial activity against Klebsiella pneumonia assessed as inhibition of bacterial growth measured after 24 hrs by CLSI-based microdilution method; assay type: functional
Enterococcus faecalis [21] = test: Antibacterial activity against Enterococcus faecalis assessed as inhibition of bacterial growth measured after 24 hrs by CLSI-based microdilution method; assay type: functional
Staphylococcus aureus [22] = test: Antibacterial activity against Staphylococcus aureus assessed as inhibition of bacterial growth measured after 24 hrs by CLSI-based microdilution method; assay type: functional
Escherichia coli [23] = test: Antibacterial activity against Escherichia coli assessed as reduction in bacterial growth measured after 24 hrs by CLSI-based Mueller-Hinton broth dilution method; assay type: functional
Pseudomonas aeruginosa [24] = test: Antibacterial activity against Pseudomonas aeruginosa assessed as inhibition of bacterial growth measured after 24 hrs by CLSI-based microdilution method; assay type: functional
Plasmodium falciparum = test: Antiplasmodial activity against Plasmodium falciparum assessed as parasitic growth inhibition; assay type: functional, organism-based
[25] = Binding affinity to Sporosarcina pasteurii Urease assessed as inhibition constant
[26] = Inhibition of Bordetella pertussis Adenylate cyclase toxin
[27] = Inhibition of Bordetella pertussis Adenylate cyclase toxin in mouse J774.A1 cells; assay type: cell-based
Klebsiella aerogenes = test: Antibacterial activity against Enterobacter aerogenes assessed as zone of inhibition; assay type: functional
Escherichia coli [28] = test: Antibacterial activity against Escherichia coli assessed as zone of inhibition; assay type: functional
Staphylococcus aureus [29] = test: Antibacterial activity against methicillin-Staphylococcus aureus ATCC 43300 assessed as reduction in bacterial growth measured after 24 hrs by broth microdilution method; assay type: functional
Bacillus subtilis [30] = test: Antibacterial activity against Bacillus subtilis assessed as reduction in bacterial growth; assay type: functional
Pseudomonas aeruginosa [31] = test: Antibacterial activity against Pseudomonas aeruginosa assessed as reduction in bacterial growth; assay type: functional
Escherichia coli [32] = test: Antibacterial activity against Escherichia coli assessed as reduction in bacterial growth; assay type: functional
Enterococcus durans = test: Antibacterial activity against Enterococcus durans assessed as reduction in bacterial growth; assay type: functional
[33] = Inhibition of GIM1 (unknown origin)
Acinetobacter baumannii [34] = test: Antibacterial activity against Acinetobacter baumannii assessed as reduction in microbial growth measured after 24 hrs by Mueller-Hinton broth based two-fold serial dilution method; assay type: functional
Bacillus cereus = test: Antibacterial activity against Bacillus cereus assessed as reduction in microbial growth measured after 24 hrs by Mueller-Hinton broth based two-fold serial dilution method; assay type: functional
Pseudomonas aeruginosa [35] = test: Antibacterial activity against Pseudomonas aeruginosa ATCC 27853 assessed as reduction in microbial growth measured after 24 hrs by Mueller-Hinton broth based two-fold serial dilution method; assay type: functional
Escherichia coli [36] = test: Antibacterial activity against Escherichia coli ATCC 25922 assessed as reduction in microbial growth measured after 24 hrs by Mueller-Hinton broth based two-fold serial dilution method; assay type: functional
Candida albicans [37] = test: Antibacterial activity against Candida albicans assessed as reduction in microbial growth measured after 24 hrs by Mueller-Hinton broth based two-fold serial dilution method; assay type: functional
Staphylococcus aureus [38] = test: Antibacterial activity against Staphylococcus aureus ATCC 25900 assessed as reduction in microbial growth measured after 24 hrs by Mueller-Hinton broth based two-fold serial dilution method; assay type: functional

MIC (Staphylococcus aureus [1]): 0.1 µg/mL
MIC (Nakaseomyces glabratus): 0.1 µg/mL (≈ 0.334 µM)
MIC (Escherichia coli [4]): 0.1 µg/mL
MIC (Bacillus subtilis [5]): 0.1 µg/mL
MIC (Candida albicans [7]): 0.1 µg/mL (≈ 0.334 µM)
MIC (Salmonella typhimurium): 0.1 µg/mL
SMILES: O=P(c1ccccc1)(c1ccccc1)C1CCC/C1=N\O (stereo not drawn)
MBC (Bacillus subtilis [2]): 2 µg/mL (≈ 6.68 µM)
MBC (Escherichia coli [3]): 2 µg/mL (≈ 6.68 µM)
MBC (Staphylococcus aureus [6]): 2 µg/mL (≈ 6.68 µM)

SMILES: CCC(CP(=O)(O)C(C)N)C(=O)O (stereo not drawn)
Ki [8]: 90 nM

SMILES: C[C@H](N)C(=O)N[C@@H](C)C(=O)N[C@@H](C)P(=O)(O)O
MIC90 (Staphylococcus aureus [9]): 8 µg/mL (≈ 29.9 µM)
MIC90 (Enterococcus faecium): 2 µg/mL (≈ 7.48 µM)
MIC90 (Klebsiella pneumoniae [10]): 4 µg/mL
MIC90 (Escherichia coli [11]): 0.25 µg/mL (≈ 0.936 µM)
MIC90 (Enterococcus faecalis [12]): 0.5 µg/mL (≈ 1.87 µM)

SMILES: CCCCCC[P+](/C=C(\c1ccccc1)c1cc(Cl)ccc1O)(c1ccccc1OC)c1ccccc1OC
MIC (Staphylococcus aureus [13]): < 1 µM

SMILES: CCCCCCCCCC[P+](C)(C)CCCCCCCCCC.[Cl-] [DIDECYLDIMETHYLPHOSPHONIUM CHLORIDE]
MIC (Staphylococcus aureus [14]): 0.78 µg/mL

SMILES: CCCCCCCCCC[P+](CCCCCC[P+](CCCCCCCCCC)(c1ccccc1)c1ccccc1)(c1ccccc1)c1ccccc1
IC50 (Acinetobacter baumannii [15]): 3000 nM

MIC (Neisseria gonorrhoeae): 4 ng/mL (≈ 0.00253 µM)
SMILES: C=C(C/C=C(\C)CCC=C(C)C)CCC(C)(C)/C=C/CC/C(C)=C\CO[C@H](COP(=O)(O)O[C@H]1O[C@H](C(N)=O)[C@@](C)(O)[C@H](OC(N)=O)[C@H]1O[C@@H]1O[C@H](CO[C@@H]2O[C@H](CO)[C@@H](O)[C@H](O)[C@H]2O)[C@@H](O[C@@H]2O[C@H](C)[C@@H](O[C@@H]3O[C@H](C(=O)NC4=C(O)CCC4=O)[C@H](O)[C@H](O)[C@H]3O)[C@H](O)[C@H]2NC(C)=O)[C@H](O)[C@H]1NC(C)=O)C(=O)O

SMILES: COCCOP(N)(=O)c1ccccc1 (stereo not drawn)
Ki (Carbonic anhydrase 2 [16]): 32.8 µM
Ki (Carbonic anhydrase 2 [17]): 20 nM

MIC (Acinetobacter baumannii [18]): 6.25 µM
SMILES: CCCCCCCCCCCC[P+](c1ccccc1)(c1ccccc1)c1ccccc1

SMILES: Cc1ncc(Cn2cc(CCOP(=O)(O)CP(=O)(O)O)nn2)c(N)n1
Kd [19]: 9 nM

SMILES: CCCCc1nc(Cl)c(C(Nc2ccc(S(N)(=O)=O)cc2)P(=O)(OCC)OCC)n1Cc1ccc(Cl)cc1 (stereo not drawn)
MIC (Klebsiella pneumoniae [20]): 4 µg/mL (≈ 6.63 µM)
MIC (Enterococcus faecalis [21]): 4 µg/mL (≈ 6.63 µM)
MIC (Staphylococcus aureus [22]): 4 µg/mL (≈ 6.63 µM)
MIC (Escherichia coli [23]): 2 µg/mL (≈ 3.31 µM)
MIC (Pseudomonas aeruginosa [24]): 4 µg/mL (≈ 6.63 µM)

SMILES: CCCCCCCC(=O)OCOP(=O)(CCCC(=O)N(C)O)OCOC(=O)CCCCCCC
IC50 (Plasmodium falciparum): 50 nM

SMILES: CN(C)CP(C)(=O)O [(DIMETHYLAMINO)METHYL(METHYL)PHOSPHINIC ACID]
Ki [25]: 0.62 µM

SMILES: CC(C)OC(=O)[C@H](Cc1ccccc1)NP(=O)(COCCn1cnc2c(N)nc(F)nc21)N[C@@H](Cc1ccccc1)C(=O)OC(C)C
IC50 [26]: 145 nM

SMILES: Nc1ncnc2c1ncn2CCOCP(=O)(O)OP(=O)(O)OP(=O)(O)O [ADEFOVIR DIPHOSPHATE]
IC50 [26]: 18 nM
IC50 [27]: 150 nM

SMILES: Cc1ncc(C[n+]2csc(CCOP(=O)(O)CP(=O)(O)O)c2C)c(N)n1
Kd [19]: 20 nM

SMILES: CCCCCCCC[P+](CCCC)(CCCCCCCC)CCCCCCCC.CS(=O)(=O)[O-]
inhibition zone (IZ) (Klebsiella aerogenes): 14 mm
inhibition zone (IZ) (Escherichia coli [28]): 14 mm

MIC (Staphylococcus aureus [29]): 0.25 µg/mL
SMILES: CS(=O)(=O)[O-].O=C(CCc1ccc(O)c(O)c1)NCCCCCCCCCC[P+](c1ccccc1)(c1ccccc1)c1ccccc1

MIC (Bacillus subtilis [30]): 0.15 µg/mL (≈ 0.451 µM)
MIC (Pseudomonas aeruginosa [31]): 0.15 µg/mL (≈ 0.451 µM)
MIC (Escherichia coli [32]): 0.15 µg/mL (≈ 0.451 µM)
MIC (Enterococcus durans): 0.15 µg/mL (≈ 0.451 µM)
SMILES: Cn1nccc1CP(=O)(Cc1ccnn1C)Cc1ccnn1C

SMILES: COP(=O)(CCSC(C)=O)NCc1ccccn1 (stereo not drawn)
IC50 [33]: 86 µM

SMILES: CN(C)CP(=O)(O)O
Ki [25]: 13 µM

SMILES: O/N=C1\CCCC1P(=S)(c1ccccc1)c1ccccc1 (stereo not drawn)
MIC (Staphylococcus aureus [1]): 0.1 µg/mL
MIC (Nakaseomyces glabratus): 0.1 µg/mL (≈ 0.317 µM)
MBC (Bacillus subtilis [2]): 2 µg/mL (≈ 6.34 µM)
MBC (Escherichia coli [3]): 2 µg/mL (≈ 6.34 µM)
MIC (Escherichia coli [4]): 0.1 µg/mL
MIC (Bacillus subtilis [5]): 0.1 µg/mL
MBC (Staphylococcus aureus [6]): 2 µg/mL (≈ 6.34 µM)
MIC (Candida albicans [7]): 0.1 µg/mL (≈ 0.317 µM)
MIC (Salmonella typhimurium): 0.1 µg/mL

SMILES: CCOP(=O)(OCC)C(Nc1ncc(-c2cc3ccccc3oc2=O)s1)c1ccccc1Br (stereo not drawn)
MIC (Acinetobacter baumannii [34]): 0.125 µg/mL
MIC (Bacillus cereus): 0.125 µg/mL
MIC (Pseudomonas aeruginosa [35]): 0.125 µg/mL
MIC (Escherichia coli [36]): 0.125 µg/mL
MIC (Candida albicans [37]): 0.125 µg/mL
MIC (Staphylococcus aureus [38]): 0.125 µg/mL
